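Compound exposure: 48 hours, 5 concentrations, 96-well plates. GI50 marks 50% less growth.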 Active and inactive are the calls of the source. No stated cut-off is given here; in the data, active = GI50 up to about 1.1 µM and inactive = higher.
Key:
Test in all cases: inhibition of tumour cell growth, NCI panel, 48 h
[1] = tested on: LXFL 529
[2] = tested on: KM-20L2
[3] = tested on: SNB-78
[4] = tested on: DMS-273
[5] = tested on: HOP-18
[6] = tested on: RXF 631
[7] = tested on: XF498
[8] = tested on: M19-MEL

Row | Compound | GI50 [1] | GI50 [2] | GI50 [3] | GI50 [4] | GI50 [5] | GI50 [6] | GI50 [7] | GI50 [8]
1 | C[Si](C)(C)C#C[I+]c1ccccc1 | 28.4 µM (inactive) | 37.5 µM (inactive) | 50.2 µM (inactive) | 19.8 µM (inactive) | 75.5 µM (inactive) | 30.1 µM (inactive) | 29.8 µM (inactive) | 31.6 µM (inactive)
2 | O/N=C1/C(=C/c2ccc(Cl)cc2)CCCC1C(NO)c1ccc(Cl)cc1 (configuration not stated) | 25.3 µM (inactive) | 17.6 µM (inactive) | 21.9 µM (inactive) | 17.8 µM (inactive) | 20.3 µM (inactive) | 18.1 µM (inactive) | 22.5 µM (inactive) | 22.9 µM (inactive)
3 | COc1ccc(/C=C/C(=O)c2c(-c3ccccc3)nn(C)c(=O)c2N2CCOCC2)cc1 | > 100 µM (inactive) | 60.3 µM (inactive) |  | > 100 µM (inactive) | > 100 µM (inactive) | > 100 µM (inactive) | 0.0601 µM (active) | > 100 µM (inactive)
4 | CCCCCCC(=O)CC(=O)C(=O)Nc1ccccc1C | > 100 µM (inactive) | > 100 µM (inactive) | > 100 µM (inactive) | > 100 µM (inactive) | > 100 µM (inactive) | > 100 µM (inactive) | > 100 µM (inactive) | > 100 µM (inactive)
5 | CCOc1ccccc1/N=N/c1c(-c2ccccc2)nn(C(=O)CC(=O)Nc2cccc(C)c2)c1-c1ccccc1 | > 100 µM (inactive) | > 100 µM (inactive) | > 100 µM (inactive) | > 100 µM (inactive) | > 100 µM (inactive) | 26.2 µM (inactive) | > 100 µM (inactive) | > 100 µM (inactive)
6 | CN(C)/C(=N/C(=S)Nc1ccccc1)SCc1ccccc1 | 2.38 µM (inactive) |  | > 100 µM (inactive) | 51.6 µM (inactive) | > 100 µM (inactive) | 88.1 µM (inactive) | 24.4 µM (inactive) | 14.7 µM (inactive)
7 | CSC1=Nc2ccccc2N=C(c2ccccc2)C1 | 70 µM (inactive) | 35.4 µM (inactive) | > 100 µM (inactive) | 39.6 µM (inactive) | > 100 µM (inactive) | 46.7 µM (inactive) | 39.4 µM (inactive) | 54.6 µM (inactive)
8 | COC(C(=O)NCCCCNC(=O)C(OC)c1ccccc1)c1ccccc1 (configuration not stated) | > 100 µM (inactive) | > 100 µM (inactive) | > 100 µM (inactive) | > 100 µM (inactive) | > 100 µM (inactive) | > 100 µM (inactive) | > 100 µM (inactive) | > 100 µM (inactive)
